Source: patent US5043343A (priority 1989, dated 1991)
Where a name gives a salt, the structure may show the parent alone.

Assays:
[1] = biological target: muscarinic receptors (3H-OXO-M site, cerebral cortex); assay: Radio ligand binding: displacement of muscarinic agonist 3H-Oxotremorine-M (3H-OXO-M), rat cerebral cortex membranes; parameters: species or system Hooded Lister rats; settings: 2 nM 3H-OXO-M, 2mM magnesium chloride, tris buffer pH 7.7, 37° C., 30 min
[2] = biological target: muscarinic receptors (3H-QNB site, cerebral cortex); assay type: binding, Hooded Lister rats; settings: 0.27nM 3H-QNB, tris buffer pH 7.7, 37° C., 30 min; rat cerebral cortex

## Nc1noc(C23CCCN(C2)C3)n1 [Example E1, 5-(3-Amino-1,2,4-oxadiazol-5-yl)-1-azabicyclo[3.1.11]heptane]
[1]
  IC50: 11 nM
[2]
  IC50: 11000 nM

## Cc1noc(C23CCCN(C2)C3)n1 [Example E2, 5-(3-Methyl-1,2,4-oxadiazol-5-yl)-1-azabicyclo[3.1.1]heptane oxalate salt]
[1]
  IC50: 15 nM
[2]
  IC50: 5000 nM

## c1ncc(C23CCCN(C2)C3)o1 [Example E3, 5-(1,3-Oxazol-5-yl)-1-azabicyc[3.1.1]heptane oxalate salt]
[1]
  IC50: 37 nM
[2]
  IC50: 6250 nM

## c1coc(C23CCCN(C2)C3)n1 [Example E4, 5-(1,3-Oxazol-2-yl)-1-azabicvclo[3.1.1]heptane oxalate salt]
[1]
  IC50: 540 nM
[2]
  IC50: 60000 nM

## CCc1noc(C23CCCN(C2)C3)n1 [Example E5, 5-(3-Ethyl-1.2.4-oxadiazol-5-yl)-1-azabicyclo[3.1.11]-heptane oxalate salt]
[1]
  IC50: 71 nM
[2]
  IC50: 5200 nM

## CCCc1noc(C23CCCN(C2)C3)n1 [Example E6, 5-(3-Propyl-1,2,4-oxadiazol-5-yl)-1-azabicyclo[3.1.11]heptane oxalate salt]
[1]
  IC50: 40 nM
[2]
  IC50: 1700 nM

## C1CN2CC(c3nc(C4CC4)no3)(C1)C2 [Example E7, 5-(3-Cyclopropyl-1,2,4-oxadiazol-5-yl)-1-azabicyclo-[3.1.1]heptane oxalate salt]
[1]
  IC50: 62 nM
[2]
  IC50: 580 nM

## CCCCc1noc(C23CCCN(C2)C3)n1 [Example E8, 5-(3-Butyl-1,2,4-oxadiazol-5-yl)-1-azabicyclo[3.1.11]heptane oxalate salt]
[1]
  IC50: 49 nM
[2]
  IC50: 1950 nM

## COCc1noc(C23CCCN(C2)C3)n1 [Example E9, 5-(3-Methoxymethyl-1,2,4-oxadiazol-5-yl)-1-azabicyclo-[3.1.11]heptane oxalate salt]
[1]
  IC50: 178 nM
[2]
  IC50: 13000 nM

## CCCCCc1noc(C23CCCN(C2)C3)n1 [Example E10, 5-(3-Pentyl-1,2,4-oxadiazol-5-yl)-1-azabicyclo[3.1.1]heptane oxalate salt]
[1]
  IC50: 141 nM
[2]
  IC50: 2400 nM

## C/C=C/Cc1noc(C23CCCN(C2)C3)n1 [Example E11, E-5-(3-But-2-enyl-1,2,4-oxadiazol-5-yl)-1-azabicyclo-[3.1.11]heptane oxalate salt]
[1]
  IC50: 165 nM
[2]
  IC50: 1850 nM

## Cc1nnc(C23CCCN(C2)C3)o1 [Example E13, 5-(2-Methyl-1,3,4-oxadiazol-5-yl)-1-azabicyclo[3 1.1]heptane oxalate salt]
[1]
  IC50: 207 nM
[2]
  IC50: 16500 nM

## CO/N=C/C12CCCN(C1)C2 [Example E14, oxalate salt]
[1]
  IC50: 109 nM
[2]
  IC50: 24000 nM

## CON=C(C)C12CCCN(C1)C2 [Example E15, E and Z-5-Acetyl-1-azabicyclo[3.1.1]heptane O-methyloxime oxalate salt]
[1]
  IC50: 290 nM
[2]
  IC50: 58000 nM
